Results published in patent US20140228287A1, “1-[(3-CYANO-PYRIDIN-2-YL)METHYL]-3-METHYL-7-(2-BUTYN-1-YL)-8-[3-(R)-AMINO-PIPERIDIN-1-YL]-AXANTHINE FOR THE TREATMENT OF A METABOLIC DISORDER OF A PREDOMINANTLY CARNIVOROUS NON-HUMAN ANIMAL” (BOEHRINGER INGELHEIM VETMEDICA GMBH, priority 2010, published 2014).
Structures can show the parent of a compound that is named as a salt. Where two headings read alike, the source gives them in different places.

Columns and labels:
[1] = biological target: T1, DPP IV (Felis catus, UniProt Q9N2I7); assay: OGTT study in normal cats after 9 mg per cat: DPP IV activity; assay type: in vivo; conditions: 9 mg per cat oral
T1 construct: Blood samples for the determination of this compound and DPP IV activity were collected; from tissue; host or cells: plasma of domestic short hair / purpose-bred cats dosed orally
T1 sequence (Q9N2I7 38-765 limits assumed): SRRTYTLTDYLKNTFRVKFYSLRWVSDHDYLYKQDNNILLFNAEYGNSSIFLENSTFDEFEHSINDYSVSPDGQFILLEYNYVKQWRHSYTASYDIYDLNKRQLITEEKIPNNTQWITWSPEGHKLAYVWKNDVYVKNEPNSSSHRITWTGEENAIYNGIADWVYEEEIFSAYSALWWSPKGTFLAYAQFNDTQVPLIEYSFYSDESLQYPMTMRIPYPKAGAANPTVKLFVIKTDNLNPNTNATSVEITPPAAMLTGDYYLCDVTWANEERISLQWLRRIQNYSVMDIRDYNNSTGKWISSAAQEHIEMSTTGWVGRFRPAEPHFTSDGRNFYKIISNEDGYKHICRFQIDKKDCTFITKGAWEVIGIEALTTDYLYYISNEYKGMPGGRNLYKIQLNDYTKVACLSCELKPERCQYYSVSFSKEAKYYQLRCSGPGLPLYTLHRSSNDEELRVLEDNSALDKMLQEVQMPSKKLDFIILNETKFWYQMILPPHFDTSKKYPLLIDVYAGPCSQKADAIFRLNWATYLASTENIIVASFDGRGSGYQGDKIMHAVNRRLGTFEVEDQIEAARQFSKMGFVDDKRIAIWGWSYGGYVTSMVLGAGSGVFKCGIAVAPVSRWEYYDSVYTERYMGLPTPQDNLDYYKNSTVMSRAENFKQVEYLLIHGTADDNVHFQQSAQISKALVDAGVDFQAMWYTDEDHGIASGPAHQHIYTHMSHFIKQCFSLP
Method: An OGTT like in Example 11 was performed in […] beginning 1 h after oral administration of 9 mg 1-[(3-cyano-pyridin-2-yl)methyl]-3-methyl-7-(2-butyn-1-yl)-8-[3-(R)-amino-piperidin-1-yl]-xanthine monohydrochloride or placebo (2 groups with 6 animals each; 3 male and 3 females per group).

[2] = Exploratory single dose PK/PD (1.0/5.0/10.0 mg/kg) in cats: pharmacokinetics; assay type: in vivo; conditions: cat; for AUC(0-inf) / Cmax / MRT / Tmax / half-life: male, domestic short hair, plasma, free base by LC-MS/MS; for half-life: read-out: T1/2, mean (converted)
Method: (§1) The aim of this study was to investigate the PK/PD behaviour of 1-[(3-cyano-pyridin-2-yl)methyl]-3-methyl-7-(2-butyn-1-yl)-8-[3-(R)-amino-piperidin-1-yl]-xanthine in the cat following a single oral administration of 0, 1, 5 and 10 mg/kg body weight (dosages were based on the free base: 1 mg 1-[(3-cyano-pyridin-2-yl)methyl]-3-methyl-7-(2-butyn-1-yl)-8-[3-(R)-amino-piperidin-1-yl]-xanthine monohydrochloride corresponds to 0.923 mg 1-[(3-cyano-pyridin-2-yl)methyl]-3-methyl-7-(2-butyn-1-yl)-8-[3-(R)-amino-piperidin-1-yl]-xanthine free base).
(§2) Twelve clinically healthy male adult domestic short hair cats with a body weight range of 3.5-4.7 kg were used in this study. All animals were treated orally once via a stomach tube. Blood samples for pharmacokinetic and pharmacodynamic (DPP IV activity) investigations were drawn at 0 h (i.e. prior to treatment), 30 min as well as 1, 2, 4, 8, 8.5, 9, 12, 24, 36, 48, 72, 84 and 96 h after treatment. Blood samples for pharmacodynamic (glucagon-like peptide 1 concentrations) investigations were drawn at −16 (i.e. prior to feeding), −15.5, −15 h as well as at 8 h (i.e. prior to feeding), 8.5 and 9 h after treatment.
PK data for 1-[(3-cyano-pyridin-2-yl)methyl]-3-methyl-7-(2-butyn-1-yl)-8-[3-(R)-amino-piperidin-1-yl]-xanthine free base were determined with a validated LC-MS/MS method and are summarized in Table 6.

[3] = biological target: M1 muscarinic receptors (Homo sapiens, UniProt P11229); assay: Selectivity panel, radio ligand binding assay: M1; conditions: only interaction observed in full panel of receptors, ion channels and enzymes
Chain of M1 muscarinic receptors (P11229 whole entry): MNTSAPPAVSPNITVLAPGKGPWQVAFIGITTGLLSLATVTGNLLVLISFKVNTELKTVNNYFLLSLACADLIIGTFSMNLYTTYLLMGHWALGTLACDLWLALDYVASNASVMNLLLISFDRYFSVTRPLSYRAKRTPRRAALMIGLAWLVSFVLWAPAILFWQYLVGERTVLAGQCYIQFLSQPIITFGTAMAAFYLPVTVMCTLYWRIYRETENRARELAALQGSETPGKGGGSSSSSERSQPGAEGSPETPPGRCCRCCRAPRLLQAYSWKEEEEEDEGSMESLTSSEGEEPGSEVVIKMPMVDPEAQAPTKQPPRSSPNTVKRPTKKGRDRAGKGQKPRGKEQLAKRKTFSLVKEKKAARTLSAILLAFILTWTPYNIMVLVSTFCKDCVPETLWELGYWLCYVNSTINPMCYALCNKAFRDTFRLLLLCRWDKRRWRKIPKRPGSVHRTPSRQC
Method: In selectivity assays as described in Dörje et al. (1991), J. Pharmacol. Exp. Ther., vol. 256, p. 727-733, chapter Radio ligand binding studies, p. 729, using the full panel of receptors, ion channels and enzymes, the only interaction observed with 1-[(3-cyano-pyridin-2-yl)methyl]-3-methyl-7-(2-butyn-1-yl)-8-[3-(R)-amino-piperidin-1-yl]-xanthine monohydrochloride was with M1 muscarinic receptors, with IC50 in a binding assay of 3 μM.

[4] = biological target: DPP 8 (Homo sapiens, UniProt Q6V1X1); assay: In vitro selectivity, human proteases: DPP 8; assay type: biochemical
Chain of DPP 8 (Q6V1X1 whole entry): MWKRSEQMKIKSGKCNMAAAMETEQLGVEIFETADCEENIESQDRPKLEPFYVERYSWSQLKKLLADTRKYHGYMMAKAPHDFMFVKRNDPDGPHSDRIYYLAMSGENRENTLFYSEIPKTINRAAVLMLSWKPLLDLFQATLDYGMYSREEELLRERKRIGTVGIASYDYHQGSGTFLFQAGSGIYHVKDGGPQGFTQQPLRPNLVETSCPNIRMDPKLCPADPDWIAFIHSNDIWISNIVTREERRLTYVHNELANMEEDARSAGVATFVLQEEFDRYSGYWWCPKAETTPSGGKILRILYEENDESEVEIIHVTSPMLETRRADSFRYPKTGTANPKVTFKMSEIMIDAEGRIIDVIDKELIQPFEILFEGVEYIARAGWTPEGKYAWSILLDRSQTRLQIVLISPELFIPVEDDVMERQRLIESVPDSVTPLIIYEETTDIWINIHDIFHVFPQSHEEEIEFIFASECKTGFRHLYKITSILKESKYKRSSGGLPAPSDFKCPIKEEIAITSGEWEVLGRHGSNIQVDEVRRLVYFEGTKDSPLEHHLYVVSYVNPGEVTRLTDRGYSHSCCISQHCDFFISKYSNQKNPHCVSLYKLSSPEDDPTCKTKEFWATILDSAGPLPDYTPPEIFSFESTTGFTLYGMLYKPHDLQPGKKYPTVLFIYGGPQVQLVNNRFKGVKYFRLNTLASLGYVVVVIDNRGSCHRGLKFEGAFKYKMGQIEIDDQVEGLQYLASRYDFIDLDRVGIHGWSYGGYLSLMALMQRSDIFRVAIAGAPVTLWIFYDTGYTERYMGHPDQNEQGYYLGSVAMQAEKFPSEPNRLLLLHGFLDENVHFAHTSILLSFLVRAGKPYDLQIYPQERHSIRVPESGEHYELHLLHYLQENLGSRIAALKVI
Source text: In order to determine the in vitro selectivity of 1-[(3-cyano-pyridin-2-yl)methyl]-3-methyl-7-(2-butyn-1-yl)-8-[3-(R)-amino-piperidin-1-yl]-xanthine, the ability of this compound to inhibit a number of human proteases was investigated as described in Thomas et al. (2008), J. Pharmacol. Exp. Ther., vol. 325, p. 175-182, chapter In vitro DPP-4 Inhibition Assay, p. 176.

[5] = Single dose study (1.0/5.0/10.0 mg/kg) in cats: adverse events; assay type: in vivo, cat; conditions: single oral 1, 5, 10 mg/kg
Method: as §1, §2

[6] = biological target: T1, DPP IV; assay: Exploratory single dose PK/PD (1.0/5.0/10.0 mg/kg) in cats: DPP IV activity; assay type: in vivo, cat; conditions: for response vs control in vivo at 1 mg/kg: 1 mg/kg single oral; for response vs control in vivo at 1 mg/kg / response vs control in vivo at 5 mg/kg / response vs control in vivo at 10 mg/kg: read-out: DPP IV activity in cat plasma; for response vs control in vivo at 5 mg/kg: 5 mg/kg single oral; for response vs control in vivo at 10 mg/kg: 10 mg/kg single oral
Method: The investigation of the PK/PD values was conducted in the same way as in Example 7, with the variations described below.
as §1, §2

CC#CCn1c(N2CCC[C@@H](N)C2)nc2c1c(=O)n(Cc1ncccc1C#N)c(=O)n2C [1-[(3-cyano-pyridin-2-yl)methyl]-3-methyl-7-(2-butyn-1-yl)-8-[3-(R)-amino-piperidin-1-yl]-xanthine monohydrochloride]
inhibition of DPP IV activity [1]: more than 80%
half live ([2]; single oral 1.0, 5.0, 10.0 mg/kg): over 25 hours
AUC(0-inf) ([2]; 1.0 mg/kg single oral): 1.14 µM·h
Cmax ([2]; 1.0 mg/kg single oral): 175 nM
MRT ([2]; 1.0 mg/kg single oral): 12.3 h
Tmax ([2]; 1.0 mg/kg single oral): 1.33 h
half-life ([2]; 1.0 mg/kg single oral): 25.4 h
AUC(0-inf) ([2]; 5.0 mg/kg single oral): 5.48 µM·h
Cmax ([2]; 5.0 mg/kg single oral): 931 nM
MRT ([2]; 5.0 mg/kg single oral): 6.76 h
Tmax ([2]; 5.0 mg/kg single oral): 1.83 h
half-life ([2]; 5.0 mg/kg single oral): 28.8 h
AUC(0-inf) ([2]; 10 mg/kg single oral): 26.3 µM·h
Cmax ([2]; 10 mg/kg single oral): 5470 nM
MRT ([2]; 10 mg/kg single oral): 5.73 h
Tmax ([2]; 10 mg/kg single oral): 1.33 h
half-life ([2]; 10 mg/kg single oral): 37.6 h
IC50 [3]: 3 µM
IC50 [4]: 95 µM
adverse events [5]: No specific adverse events were observed
time up to which DPP IV values remained ≦20% ([6]; 1.0 mg/kg single oral): 12 h
response vs control in vivo at 1 mg/kg ([6]; 0.5 h): 8%
response vs control in vivo at 1 mg/kg ([6]; 1 h): 7%
response vs control in vivo at 1 mg/kg ([6]; 2 h): 7%
response vs control in vivo at 1 mg/kg ([6]; 4 h): 7.3%
response vs control in vivo at 1 mg/kg ([6]; 8 h): 9.3%
response vs control in vivo at 1 mg/kg ([6]; 8.5 h): 9.7%
response vs control in vivo at 1 mg/kg ([6]; 9 h): 9.7%
response vs control in vivo at 1 mg/kg ([6]; 12 h): 12.3%
response vs control in vivo at 1 mg/kg ([6]; 24 h): 22.3%
response vs control in vivo at 1 mg/kg ([6]; 36 h): 43%
response vs control in vivo at 1 mg/kg ([6]; 48 h): 59%
response vs control in vivo at 1 mg/kg ([6]; 72 h): 74.7%
response vs control in vivo at 1 mg/kg ([6]; 84 h): 84.3%
response vs control in vivo at 1 mg/kg ([6]; 96 h): 81.7%
time up to which DPP IV values remained ≦20% ([6]; 5.0 mg/kg single oral): 24 h
response vs control in vivo at 5 mg/kg ([6]; 0.5 h): 7.7%
response vs control in vivo at 5 mg/kg ([6]; 1 h): 7%
response vs control in vivo at 5 mg/kg ([6]; 2 h): 7%
response vs control in vivo at 5 mg/kg ([6]; 4 h): 7.7%
response vs control in vivo at 5 mg/kg ([6]; 8 h): 8.3%
response vs control in vivo at 5 mg/kg ([6]; 8.5 h): 8.7%
response vs control in vivo at 5 mg/kg ([6]; 9 h): 9%
response vs control in vivo at 5 mg/kg ([6]; 12 h): 9.3%
response vs control in vivo at 5 mg/kg ([6]; 24 h): 14.7%
response vs control in vivo at 5 mg/kg ([6]; 36 h): 25.7%
response vs control in vivo at 5 mg/kg ([6]; 48 h): 42.7%
response vs control in vivo at 5 mg/kg ([6]; 72 h): 72.3%
response vs control in vivo at 5 mg/kg ([6]; 84 h): 90%
response vs control in vivo at 5 mg/kg ([6]; 96 h): 87.7%
time up to which DPP IV values remained ≦20% ([6]; 10.0 mg/kg single oral): 48 h
response vs control in vivo at 10 mg/kg ([6]; 0.5 h): 8%
response vs control in vivo at 10 mg/kg ([6]; 1 h): 7.3%
response vs control in vivo at 10 mg/kg ([6]; 2 h): 7.3%
response vs control in vivo at 10 mg/kg ([6]; 4 h): 9%
response vs control in vivo at 10 mg/kg ([6]; 8 h): 9%
response vs control in vivo at 10 mg/kg ([6]; 8.5 h): 9.7%
response vs control in vivo at 10 mg/kg ([6]; 9 h): 9.3%
response vs control in vivo at 10 mg/kg ([6]; 12 h): 9.7%
response vs control in vivo at 10 mg/kg ([6]; 24 h): 12.3%
response vs control in vivo at 10 mg/kg ([6]; 36 h): 16.3%
response vs control in vivo at 10 mg/kg ([6]; 48 h): 20%
response vs control in vivo at 10 mg/kg ([6]; 72 h): 37%
response vs control in vivo at 10 mg/kg ([6]; 84 h): 58.3%
response vs control in vivo at 10 mg/kg ([6]; 96 h): 67.3%
minimum mean DPP IV values ([6]; all three groups (1.0, 5.0, 10.0 mg/kg single oral)): 7%
plasma concentration at which maximum DPP-IV inhibition was reached ([6]; cat, PK-PD correlation): 15 to 30 nmol/L
